From patent publication US8748481B2, “Method for treating gastrointestinal disorder” (Sucampo AG, priority 2004, dated 2014)
Marks after values point to notes of the source that are not given here.

Key:
Format in all cases: in vivo, human
[1] = system: subjects with occasional constipation; test: Severity of constipation, abdominal bloating and abdominal discomfort during 6 and 12 months treatment (Example 1); conditions: 48 μg/day, 6 months and 12 months treatment
Description: Multi-center, open-label study was performed to evaluate the safety of 48 μg of Compound A (13,14-dihydro-15-keto-16,16-difluoro-PGE1) (24 μg of Compound A b.i.d) when administered daily for 24 weeks (6 months) or 48 weeks (12 months) to subjects with occasional constipation. […] After 14-day drug-free washout period, they received 48 μg of Compound A (24 μg of Compound A b.i.d) orally for 48 weeks.
Each parameter (Severity of Constipation, Abdominal bloating or Abdominal discomfort) was evaluated on the scale of: 0 (absent), 1 (mild), 2 (moderate), 3 (severe) and 4 (very severe) in the patients during 6 months (n=246) or 12 months (n=304) treatments.

[2] = system: patients with irritable bowel syndrome (IBS); test: 48-week treatment of IBS patients: abdominal discomfort, abdominal bloating, severity of constipation (Example 3); design: key to Abdominal discomfort, Change from Baseline, Median / Abdominal bloating, Change from Baseline, Median: change on 0 (absent) to 4 (very severe) scale; key to Severity of Constipation, Change from Baseline, Median: change on 0 (very loose) to 4 (very hard) scale; conditions: for Abdominal bloating, Mean ± SD / Abdominal bloating, Median / Abdominal discomfort, Mean ± SD / Abdominal discomfort, Median / Severity of Constipation, Mean ± SD / Severity of Constipation, Median: scale 0-4
Description: Patients with irritable bowel syndrome (IBS) were treated with 48 μg of Compound A (24 μg of Compound A b.i.d) for 48 weeks.
In this study, we evaluated the following parameters. • 1) Abdominal discomfort • 2) Abdominal bloating • 3) Severity of Constipation
Each of Abdominal discomfort and Abdominal bloating was evaluated on a scale of: 0 (absent), 1 (mild), 2 (moderate), 3 (severe) and 4 (very severe) in the patients. Severity of Constipation was evaluated on a scale of: 0 (very loose), 1: (loose), 2: (normal), 3 (hard), 4 (very hard) in the patients.

[3] = system: subjects with occasional constipation; test: MOS SF-36 quality of life assessment, 48-week study (Example 6)
Description: A 48-week multi-center study was performed to assess the safety and efficacy of 48 μg (total daily dose) of Compound A to subjects with occasional constipation. […] After 14-day drug-free washout period, they received orally 48 μg of Compound A (24 μg of […], b.i.d) daily for 48 weeks.
The subjects completed the Medical Outcomes Study (MOS) 36-item short form (SF-36), i.e., a conventionally used QOL assessment form, at enrollment (baseline) and end of treatment (Week 48). Components of the MOS SF-36 (Med Care 30(6),473-483, 1992) are outlined below: • Physical component: Physical Function; Role-Physical, Bodily Pain and General Health • Mental component: Vitality, Social Function, Role-Emotional and Mental Health
Each of the 8 components was scored within the guidelines of the publisher, including the publisher's guidelines for imputing missing variables. The change from baseline in each of the 8 component scores at the end of treatment (Week 48) were recorded and evaluated with paired t-tests.

## CCCCC(F)(F)C(=O)CCC1C(O)CC(=O)C1CCCCCCC(=O)O (stereo not shown) [Compound A, 13,14-dihydro-15-keto-16,16-difluoro-PGE1]
[1]
  Efficacy on severity of constipation, abdominal bloating and abdominal discomfort (FIGS. 1 to 6): effective
[2]; 48 μg/day, 12 months treatment
  Efficacy in IBS patients (Tables 2 to 4): effective
[2]; Baseline
  Abdominal bloating, Mean ± SD: 2.23 ± 0.927 (183)
  Abdominal bloating, Median: 2.00
  Abdominal discomfort, Mean ± SD: 1.95 ± 0.850 (183)
  Abdominal discomfort, Median: 2.00
  Severity of Constipation, Mean ± SD: 2.95 ± 0.751 (183)
  Severity of Constipation, Median: 3.00
[2]; End of Treatment, 48 μg/day
  Abdominal bloating, Change from Baseline, Mean ± SD: −0.73 ± 1.075 (183)
  Abdominal bloating, Change from Baseline, Median: −1.00
  Abdominal discomfort, Change from Baseline, Mean ± SD: −0.66 ± 1.112 (183)
  Abdominal discomfort, Change from Baseline, Median: −1.00
  Severity of Constipation, Change from Baseline, Mean ± SD: −1.11 ± 1.148 (183)
  Severity of Constipation, Change from Baseline, Median: −1.00
  Abdominal bloating, Mean ± SD: 1.50 ± 1.005 (183)
  Abdominal bloating, Median: 1.00
  Abdominal discomfort, Mean ± SD: 1.28 ± 1.020 (183)
  Abdominal discomfort, Median: 1.00
  Severity of Constipation, Mean ± SD: 1.84 ± 1.120 (183)
  Severity of Constipation, Median: 2.00
[2]; Follow-Up
  Abdominal bloating, Change from Baseline, Mean ± SD: −0.69 ± 1.109 (121)
  Abdominal bloating, Change from Baseline, Median: −1.00
  Abdominal discomfort, Change from Baseline, Mean ± SD: −0.55 ± 1.080 (121)
  Abdominal discomfort, Change from Baseline, Median: −1.00
  Severity of Constipation, Change from Baseline, Mean ± SD: −0.88 ± 1.122 (121)
  Severity of Constipation, Change from Baseline, Median: −1.00
  Abdominal bloating, Mean ± SD: 1.55 ± 0.957 (121)
  Abdominal bloating, Median: 2.00
  Abdominal discomfort, Mean ± SD: 1.40 ± 0.996 (121)
  Abdominal discomfort, Median: 1.00
  Severity of Constipation, Mean ± SD: 2.07 ± 0.946 (121)
  Severity of Constipation, Median: 2.00
[2]; Week 12, 48 μg/day
  Abdominal bloating, Change from Baseline, Mean ± SD: −0.84 ± 1.045 (135)
  Abdominal bloating, Change from Baseline, Median: −1.00
  Abdominal discomfort, Change from Baseline, Mean ± SD: −0.79 ± 0.993 (135)
  Abdominal discomfort, Change from Baseline, Median: −1.00
  Severity of Constipation, Change from Baseline, Mean ± SD: −1.16 ± 1.099 (135)
  Severity of Constipation, Change from Baseline, Median: −1.00
  Abdominal bloating, Mean ± SD: 1.43 ± 0.919 (135)
  Abdominal bloating, Median: 1.00
  Abdominal discomfort, Mean ± SD: 1.16 ± 0.836 (135)
  Abdominal discomfort, Median: 1.00
  Severity of Constipation, Mean ± SD: 1.76 ± 1.003 (135)
  Severity of Constipation, Median: 2.00
[2]; Week 18, 48 μg/day
  Abdominal bloating, Change from Baseline, Mean ± SD: −1.07 ± 1.068 (111)
  Abdominal bloating, Change from Baseline, Median: −1.00
  Abdominal discomfort, Change from Baseline, Mean ± SD: −0.97 ± 1.031 (111)
  Abdominal discomfort, Change from Baseline, Median: −1.00
  Severity of Constipation, Change from Baseline, Mean ± SD: −1.59 ± 1.148 (111)
  Severity of Constipation, Change from Baseline, Median: −2.00
  Abdominal bloating, Mean ± SD: 1.19 ± 0.837 (111)
  Abdominal bloating, Median: 1.00
  Abdominal discomfort, Mean ± SD: 0.98 ± 0.874 (111)
  Abdominal discomfort, Median: 1.00
  Severity of Constipation, Mean ± SD: 1.33 ± 0.985 (111)
  Severity of Constipation, Median: 1.00
[2]; Week 24, 48 μg/day
  Abdominal bloating, Change from Baseline, Mean ± SD: −0.95 ± 1.102 (107)
  Abdominal bloating, Change from Baseline, Median: −1.00
  Abdominal discomfort, Change from Baseline, Mean ± SD: −0.82 ± 1.035 (107)
  Abdominal discomfort, Change from Baseline, Median: −1.00
  Severity of Constipation, Change from Baseline, Mean ± SD: −1.40 ± 1.036 (107)
  Severity of Constipation, Change from Baseline, Median: −1.00
  Abdominal bloating, Mean ± SD: 1.26 ± 0.915 (107)
  Abdominal bloating, Median: 1.00
  Abdominal discomfort, Mean ± SD: 1.09 ± 0.917 (107)
  Abdominal discomfort, Median: 1.00
  Severity of Constipation, Mean ± SD: 1.50 ± 0.965 (107)
  Severity of Constipation, Median: 1.00
[2]; Week 36, 48 μg/day
  Abdominal bloating, Change from Baseline, Mean ± SD: −1.00 ± 1.134 (57)
  Abdominal bloating, Change from Baseline, Median: −1.00
  Abdominal discomfort, Change from Baseline, Mean ± SD: −0.77 ± 0.926 (57)
  Abdominal discomfort, Change from Baseline, Median: −1.00
  Severity of Constipation, Change from Baseline, Mean ± SD: −1.33 ± 1.123 (57)
  Severity of Constipation, Change from Baseline, Median: −1.00
  Abdominal bloating, Mean ± SD: 1.05 ± 0.854 (57)
  Abdominal bloating, Median: 1.00
  Abdominal discomfort, Mean ± SD: 0.93 ± 0.799 (57)
  Abdominal discomfort, Median: 1.00
  Severity of Constipation, Mean ± SD: 1.39 ± 0.921 (57)
  Severity of Constipation, Median: 1.00
[2]; Week 48, 48 μg/day
  Abdominal bloating, Change from Baseline, Mean ± SD: −0.94 ± 0.802 (52)
  Abdominal bloating, Change from Baseline, Median: −1.00
  Abdominal discomfort, Change from Baseline, Mean ± SD: −0.81 ± 0.908 (52)
  Abdominal discomfort, Change from Baseline, Median: −1.00
  Severity of Constipation, Change from Baseline, Mean ± SD: −1.37 ± 1.095 (51)
  Severity of Constipation, Change from Baseline, Median: −1.00
  Abdominal bloating, Mean ± SD: 1.12 ± 0.832 (52)
  Abdominal bloating, Median: 1.00
  Abdominal discomfort, Mean ± SD: 0.87 ± 0.929 (52)
  Abdominal discomfort, Median: 1.00
  Severity of Constipation, Mean ± SD: 1.37 ± 0.894 (51)
  Severity of Constipation, Median: 1.00
[3]; 48 μg/day, 48 weeks
  Effect on QOL of the patients (SF-36): improves the QOL
[3]; Baseline
  SF36 Bodily Pain score, Mean: 47.53
  SF36 General Health score, Mean: 51.52
  SF36 Mental Health score, Mean: 50.60
  SF36 Physical Function score, Mean: 49.04
  SF36 Role-Emotional score, Mean: 49.52
  SF36 Role-Physical score, Mean: 49.75
  SF36 Social Function score, Mean: 50.12
  SF36 Vitality score, Mean: 50.61
[3]; Week 48, 48 μg/day
  SF36 Bodily Pain score, Mean change from baseline: 3.38**
  SF36 General Health score, Mean change from baseline: 1.47*
  SF36 Mental Health score, Mean change from baseline: 1.97**
  SF36 Physical Function score, Mean change from baseline: 2.48**
  SF36 Role-Emotional score, Mean change from baseline: 1.22
  SF36 Role-Physical score, Mean change from baseline: 1.95**
  SF36 Social Function score, Mean change from baseline: 2.22**
  SF36 Vitality score, Mean change from baseline: 2.89**
